Where two headings read alike, the source gives them in different places.
Tests used:
[1] = system: T. b. gambiense; experiment: Growth inhibition of T. b. gambiense strains; format: cell-based; settings: Trypanosoma brucei, mean ± SD, read-out: T. b. gambiense EC50
[2] = Mouse plasma protein binding; format: in vitro ADME; settings: for fraction unbound: mouse plasma
Method: (§1) Test compounds’ solubility was determined in a high-throughput thermodynamic solubility assay, as described previously. The PAMPA (parallel artificial membrane) assays were carried out, using a standard protocol. Plasma protein binding was determined by using mouse blood, whilst brain tissue binding was determined by using rat brain tissue homogenate. Intrinsic metabolic clearances were determined in mouse liver microsomes, using the compound depletion approach and LC–MS/MS quantification.

[3] = Rat brain tissue binding; format: in vitro ADME; settings: rat brain tissue homogenate
Method: as §1

[4] = system: T. b. brucei; experiment: Growth inhibition of T. b. brucei strains BS221, BS221 (P2 KO), STIB950; format: cell-based; settings: Trypanosoma brucei, mean ± SD, read-out: T. b. brucei EC50
Method: The T. b. brucei strain Lister 427 (bloodstream form) parasites were continuously grown in complete HMI-9 medium supplemented with 10% Serum Plus and 10% heat-inactivated fetal bovine serum (FBS). All other parasite strains were cultured as described elsewhere.
For determination of 50% growth inhibition, all compounds were dissolved in DMSO, and 200 nL of threefold serially diluted compounds were added into solid-bottom 384-well white plates (Greiner Bio-One, Kremsmunster, Austria) by an Echo 555 acoustic liquid-handling system. Forty microliters of 10^4 cells/mL of T. b. brucei parasites was added into each well, and the plates were incubated in a 5% CO2 incubator at 37 °C for 48 h. Viability of parasites were determined by measuring intracellular ATP levels, using CellTiter-Glo (CTG) luminescent cell viability reagent (Promega, Madison, Wisconsin WI, USA). The EC50 values were determined by using GraphPad Prism software. Growth inhibition assays for all clinical isolates were carried out as described earlier. All experiments had two technical replicates and three biological replicates. […]

[5] = system: HepG2 (human hepatocellular carcinoma) cells; experiment: HepG2 cytotoxicity assay (CCK-8, 96 h); format: cell-based; settings: mean ± SEM
Method: (§2) The HepG2 (human hepatocellular carcinoma) cells were obtained from ATCC (American Type Culture Collection) and grown in RPMI media. Cytotoxicity assay was performed in 384-well format, and 25 µL, approximately 1.6 × 10^4 cells/mL, suspension was added to clear-bottom 384-well Griener plates and incubated in 5% CO2 incubator, at 37 °C for 24 h. Once the cells adhered, 125 nL of threefold serially diluted compounds in DMSO was added. Plates were incubated for 96 h, at 37 °C, in a 5% CO2 incubator. Plates were read for viability by adding 10 µL of CCK-8 reagent (APExBIO) into each well, followed by 3 h incubation and absorbance reading at […], using an Envision plate reader. […] Puromycin was used as a positive control. All experiments had two technical replicates and three biological replicates. Appropriate statistical tests were used for evaluating significance, and mean ± SEM is represented in the tables.

[6] = HepG2 cytotoxicity assay (CCK-8, 96 h); format: cell-based, human; settings: human, HepG2 cells, mean ± SEM
Method: as §2

[7] = system: T. brucei PSMB4^WT; experiment: Growth inhibition of T. brucei expressing wild-type 20S proteasome β4 subunit; format: cell-based; settings: Trypanosoma brucei, read-out: T. brucei PSMB4^WT EC50
Method: (§3) For determination of 50% growth inhibition, all compounds were dissolved in DMSO, and 200 nL of threefold serially diluted compounds were added into solid-bottom 384-well white plates (Greiner Bio-One, Kremsmunster, Austria) by an Echo 555 acoustic liquid-handling system. Forty microliters of 10^4 cells/mL of T. b. brucei parasites was added into each well, and the plates were incubated in a 5% CO2 incubator at 37 °C for 48 h. Viability of parasites were determined by measuring intracellular ATP levels, using CellTiter-Glo (CTG) luminescent cell viability reagent (Promega, Madison, Wisconsin WI, USA). The EC50 values were determined by using GraphPad Prism software. Growth inhibition assays for all clinical isolates were carried out as described earlier. All experiments had two technical replicates and three biological replicates. Appropriate statistical tests were used for evaluating significance, and mean ± SEM is represented in the tables.

[8] = system: T. b. rhodesiense; experiment: Growth inhibition of T. b. rhodesiense strains; format: cell-based; settings: Trypanosoma brucei, mean ± SD, read-out: T. b. rhodesiense EC50
[9] = Per oral pharmacokinetics in mouse; format: in vivo; settings: for AUC / Cmax: total
Method: Determination of intravenous (i.v.) and per oral (p.o.) pharmacokinetics (PK) were carried out by using male BALB/c mice. For i.v. PK studies, compounds were formulated at a concentration of 2.5 mg/mL in 75% PEG300 and 25% D5W (5% dextrose in distilled water). To avoid any granular material, the solution was filtered, using a 0.45 μm syringe filter. The filtered solutions were dosed intravenously to mice via the lateral tail vein, at 5 mg/kg, with a dosing volume of 2 mL/kg. For all the p.o. PK studies, compounds were resuspended in 0.5% v/v methyl cellulose in 0.5 % v/v tween 80 solution. For 20 mg/kg dosing, 200 µL of compounds was administered orally to mice. Six blood samples of 50 μL each were collected serially from each animal, up to 24 h after dosing. Blood samples were collected into heparin microtainers and centrifuged, and then plasma was separated and frozen until analysis. Plasma samples (20 μL) were extracted with acetonitrile:methanol (3:1) containing internal standard. The samples were vortexed and then centrifuged in an Eppendorf centrifuge 5810R, at a setting of 4000 rpm, for 5 min, at 4 °C. The supernatant was transferred to a 96-well analysis plate and analyzed, using optimized LC/MS/MS conditions. For every experiment, 3 mice were used per compound, per dose. The plasma concentration-time profile was obtained by plotting the mean value from the three animals at each time point. Various PK parameters, such as Cmax (maximum concentration), area under curve (AUC) and oral bioavailability (F) for compounds, were calculated by non-compartmental regression analysis, using an in-house fitting program developed at GNF [8]. All the in-life studies were carried out under protocols approved by the Animal Care and Use Committee (IACUC), following animal ethics guidelines of GNF.

[10] = system: T. brucei PSMB4^F24L; experiment: Growth inhibition of T. brucei expressing F24L mutant 20S proteasome β4 subunit; format: cell-based, Trypanosoma brucei; settings: Trypanosoma brucei, read-out: T. brucei PSMB4^F24L EC50
Method: as §3

[11] = GAMBIENSE / STIB930, strain STIB930
[12] = RHODESIENSE / STIB900, strain STIB900
[13] = RHODESIENSE / STIB900, strain STIB900 Mel^R (melarsoprol-resistant)
[14] = RHODESIENSE / STIB900, strain STIB900 Pent^R (pentamidine-resistant)
[15] = male, BALB/c, plasma, po, p.o. 20 mg/kg, 0 to infinity
[16] = male, BALB/c, plasma, po, p.o. 20 mg/kg

Row | SMILES | EC50 [1, 11] [nM] | EC50 ([1]; GAMBIENSE, strain K048) [nM] | EC50 ([1]; GAMBIENSE, strain R130) [nM] | fraction unbound [2] | BTB (rat brain tissue binding) [3] [%] | EC50 ([4]; STIB950, strain STIB950) [nM] | EC50 ([4]; strain BS221 (P2 KO)) [nM] | EC50 ([4]; strain BS221) [nM] | CC50 at 96 h [6] [nM] | EC50 [7] [nM] | EC50 [8, 12] [nM] | EC50 [8, 13] [nM] | EC50 [8, 14] [nM] | AUC [9, 15] [µM·h] | Cmax [9, 16] [µM] | Tmax ([9]; p.o. 20 mg/kg) [H] | Cmax, free fraction (value in parenthesis) ([9]; p.o. 20 mg/kg, free) [µM] | EC50 [10] [nM] | also measured
1 | Cc1nc(C)c(C(=O)Nc2ccc(F)c(-c3nc4ncc(-c5ccccc5)cn4n3)c2)o1 [GNF3849] | 4.5 ± 1 | 4.8 ± 1.1 | 1.9 ± 1 | < 0.01 | >99 | 0.9 ± 0.2 | 4 ± 2.5 | 1.9 ± 0.8 | 1100 ± 200 | 10 ± 3 | 1.4 ± 1 | 0.6 | 1.7 ± 1 | 108 | 7.16 | 3 | < 0.0716 | 2200 ± 20 | Mouse plasma protein binding [2]: high; HepG2 CC50 [5]: cytotoxic; Exposure, fold less than GNF6702 ([9]; oral): ~ 2.5 fold; AUC, free fraction (value in parenthesis) ([9]; p.o. 20 mg/kg, 0 to infinity, free): < 1.0751 µM·h
2 | Cc1nc(C)c(C(=O)Nc2ccc(F)c(-c3nc4ncc(-c5ccccn5)cn4n3)c2)o1 [GNF6702] | 3.7 ± 2 | 3.5 ± 1.4 | 2.3 ± 1.1 |  |  | 1.2 ± 0.5 | 3.5 ± 1.2 | 0.9 ± 0.3 |  |  | 1.6 ± 0.9 | 0.7 ± 0.2 | 1.2 ± 0.3 |  |  |  |  |  | 
3 | Cc1nc(C)c(C(=O)Nc2ccc(F)c(-c3nc4ncc(C(C)(C)C)cn4n3)c2)o1 [NITD689] |  |  |  | 0.095 | 96.5 |  |  |  | > 20000 | 20 ± 4 |  |  |  | 89.7 | 12.2 | 0.5 | 1.1562 | 1900 ± 20 | bioavailability ([9]; male, BALB/c, plasma, po, p.o. 20 mg/kg, read-out: F (oral bioavailability)): 100%

Source: article PMC7157554, “Anti-Trypanosomal Proteasome Inhibitors Cure Hemolymphatic and Meningoencephalic Murine Infection Models of African Trypanosomiasis” (Tropical Medicine and Infectious Disease, 2020)
